According to publication PMC5015447 (Biochemistry, 2016):
Values joined by “and” are separate entries in the source; they are usually repeats but may differ in a detail not shown here. Equal values may be shown once. Read-outs that look alike come from different tables or passages of the source.

Key:
[1] = target: E. coli cofactor-dependent phosphoglycerate mutase (dPGM) (Escherichia coli, UniProt P62707); experiment: biochemical; assay type: binding
[2] = test system: cofactor-dependent phosphoglycerate mutase (dPGM); settings: cited from earlier work
dPGM R9A [3] = target: T1, dPGM R9A (Escherichia coli, UniProt P62707, R10A); experiment: Equilibrium unfolding of dPGM variant R9A with 1.0 mM ATP; assay type: binding, E. coli
T1 sequence (P62707 whole entry R10A): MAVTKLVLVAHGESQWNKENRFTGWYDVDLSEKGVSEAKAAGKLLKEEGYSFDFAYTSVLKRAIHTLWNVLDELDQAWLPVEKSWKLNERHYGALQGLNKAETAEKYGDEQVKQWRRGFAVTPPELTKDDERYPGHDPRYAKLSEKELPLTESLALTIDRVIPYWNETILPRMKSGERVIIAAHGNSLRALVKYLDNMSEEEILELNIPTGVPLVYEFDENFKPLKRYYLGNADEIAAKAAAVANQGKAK

S. cerevisiae dPGM = settings: cited from earlier work
dPGM R116A [4] = target: T2, dPGM R116A (Escherichia coli, UniProt P62707, R117A); experiment: ATP binding by isothermal titration calorimetry, R116A; set-up: species or system E. coli
T2 sequence (P62707 whole entry R117A): as the sequence (P62707 whole entry R10A) above, with A10R, R117A counted along it

dPGM R115A [5] = target: T3, dPGM R115A (Escherichia coli, UniProt P62707, R116A); experiment: Equilibrium unfolding of dPGM variant R115A with 1.0 mM ATP; assay type: binding, E. coli
T3 sequence (P62707 whole entry R116A): as the sequence (P62707 whole entry R10A) above, with A10R, R116A counted along it

dPGM K99A [6] = target: T4, dPGM K99A (Escherichia coli, UniProt P62707, K100A); experiment: Equilibrium unfolding of dPGM variant K99A with 1.0 mM ATP; assay type: binding, E. coli
T4 sequence (P62707 whole entry K100A): as the sequence (P62707 whole entry R10A) above, with A10R, K100A counted along it

Wild-type dPGM = Wild-type dPGM (Escherichia coli, UniProt P62707); experiment: ATP binding by isothermal titration calorimetry, wild-type dPGM; set-up: species or system E. coli
Wild-type dPGM, sequence (P62707 whole entry): as the sequence (P62707 whole entry R10A) above, with A10R counted along it

dPGM R115A [7] = target: T3, dPGM R115A; experiment: ATP binding by isothermal titration calorimetry, R115A; set-up: species or system E. coli
dPGM R9A [8] = target: T1, dPGM R9A; experiment: ATP binding by isothermal titration calorimetry, R9A; set-up: species or system E. coli
dPGM R116A [9] = target: T2, dPGM R116A; experiment: Equilibrium unfolding of dPGM variant R116A with 1.0 mM ATP; assay type: binding, E. coli
dPGM K222A [10] = target: T5, dPGM K222A (Escherichia coli, UniProt P62707, K223A); experiment: Equilibrium unfolding of dPGM variant K222A; assay type: binding, E. coli
T5 sequence (P62707 whole entry K223A): as the sequence (P62707 whole entry R10A) above, with A10R, K223A counted along it

dPGM K99A [11] = target: T4, dPGM K99A; experiment: ATP binding by isothermal titration calorimetry, K99A; set-up: species or system E. coli
dPGM K222A [12] = target: T5, dPGM K222A; experiment: ATP binding by isothermal titration calorimetry, K222A; set-up: species or system E. coli
[13] = 50 mM phosphate, global fit with no-ligand data
[14] = 50 mM phosphate, global fit with no-ligand data (shared m-value)
[15] = ligand 1.0 mM, one global fit of all nucleotide data sets

E. coli cofactor-dependent phosphoglycerate mutase (dPGM), sequence (P62707 whole entry): as the sequence (P62707 whole entry R10A) above, with A10R counted along it

Molecule: O=P(O)(O)OP(=O)(O)O [Pyrophosphate]
- Kd [1]: 1.2 ± 0.2 µM
- mI-N [1]: 2.47 (± 0.04) kcal mol^−1M^−1
- mU-I [1]: 1.62 (± 0.09) kcal mol^−1M^−1
- ΔGI-N° [1]: 16.8 (± 0.1) kcal/mol
- ΔGU-I [1]: 5.2 (± 0.3) kcal/mol
- ΔΔGI-N° [1]: 5.3 (± 0.1) kcal/mol

Molecule: Nc1ncnc2c1ncn2[C@@H]1O[C@H](CO[P@](=O)(O)O[P@](=O)(O)O[P@@](=O)(O)S)[C@@H](O)[C@H]1O [ATPγS]
- protein remaining intact after pulse proteolysis ([2]; E. coli lysate, 2.0 M urea, 1.0 mM ATPγS): a significant population of the protein remained intact

Molecule: phosphate
- ΔΔGI-N° ([1]; 50 mM phosphate): 5.9 (± 0.1) kcal/mol
- ΔGI-N° [1, 13]: 17.3 (± 0.1) kcal/mol
- ΔGU-I [1, 13]: 5.6 (± 0.3) kcal/mol
- mI-N [1, 14]: 2.36 (± 0.03) kcal mol^−1M^−1
- mU-I [1, 14]: 1.82 (± 0.08) kcal mol^−1M^−1
- Kd ([1]; calculated with Eq. 6, 50 mM phosphate): 350 ± 60 µM

Molecule: Nc1ncnc2c1ncn2[C@@H]1O[C@H](CO)[C@@H](O)[C@H]1O [Adenosine, adenosine]
- effect on equilibrium unfolding (first unfolding transition) ([1]; ligand 1.0 mM): negligible
- ΔΔGI-N° = ΔGI-N°(ligand) – ΔGI-N°(no ligand) ([1]; ligand 1.0 mM): 0.09 (± 0.07) kcal/mol
- ΔGI-N° [1, 15]: 11.7 (± 0.1) kcal/mol
- ΔGU-I [1, 15]: 5.6 (± 0.2) kcal/mol

Molecule: Nc1ncnc2c1ncn2[C@@H]1O[C@H](COP(=O)(O)O)[C@@H](O)[C@H]1O [AMP, adenosine monophosphate]
- Kd ([1]; calculated with Eq. 6 from stability increase, ligand 1.0 mM): 240 ± 40 µM
- effect on equilibrium unfolding (first unfolding transition) ([1]; ligand 1.0 mM): significantly shift the first unfolding transition to higher urea concentrations
- ΔΔGI-N° = ΔGI-N°(ligand) – ΔGI-N°(no ligand) ([1]; ligand 1.0 mM): 1.96 (± 0.09) kcal/mol
- ΔGI-N° [1, 15]: 13.6 (± 0.1) kcal/mol
- ΔGU-I [1, 15]: 5.5 (± 0.2) kcal/mol

Molecule: Nc1ncnc2c1ncn2[C@@H]1O[C@H](COP(=O)(O)OP(=O)(O)O)[C@@H](O)[C@H]1O [ADP, adenosine diphosphate]
- Kd [1]: 18 ± 3 µM
- effect on equilibrium unfolding (first unfolding transition) ([1]; ligand 1.0 mM): significantly shift the first unfolding transition to higher urea concentrations
- ΔΔGI-N° = ΔGI-N°(ligand) – ΔGI-N°(no ligand) ([1]; ligand 1.0 mM): 4.8 (± 0.1) kcal/mol
- ΔGI-N° [1, 15]: 16.4 (± 0.1) kcal/mol
- ΔGU-I [1, 15]: 5.2 (± 0.2) kcal/mol

Molecule: Nc1nc2c(ncn2[C@@H]2O[C@H](COP(=O)(O)OP(=O)(O)OP(=O)(O)O)[C@@H](O)[C@H]2O)c(=O)[nH]1 [GTP, guanosine triphosphate]
- Kd [1]: 0.4 ± 0.5 µM
- effect on equilibrium unfolding (first unfolding transition) ([1]; ligand 1.0 mM): significantly shift the first unfolding transition to higher urea concentrations
- ΔΔGI-N° = ΔGI-N°(ligand) – ΔGI-N°(no ligand) ([1]; ligand 1.0 mM): 9.3 (± 0.8) kcal/mol
- ΔGI-N° [1, 15]: 20.9 (± 0.8) kcal/mol
- ΔGU-I [1, 15]: 4.3 (± 0.6) kcal/mol

Molecule: Nc1ncnc2c1ncn2[C@@H]1O[C@H](COP(=O)(O)OP(=O)(O)OP(=O)(O)O)[C@@H](O)[C@H]1O [ATP, adenosine triphosphate]
- ΔGATP° = ΔGI-N°(1 mM ATP) - ΔGI-N°(No ATP) (dPGM R9A [3]): 4.2 ± 0.2 kcal/mol
- ΔGI-N° (dPGM R9A [3]): 16.6 ± 0.2 kcal/mol
- ΔGU-I° (dPGM R9A [3]): 6.3 ± 0.5 kcal/mol
- ΔΔGATP° = ΔGATP°(variant) – ΔGATP°(WT) (dPGM R9A [3]): –1.4 ± 0.1 kcal/mol
- stabilization in energetics-based proteome screen (S. cerevisiae dPGM): stabilizes
- Kd (dPGM R116A [4]): 1.5 ± 0.3 µM
- ΔΔGbind° = ΔGbind°(varient) – ΔGbind°(WT) (dPGM R116A [4]; R116A): –0.9 ± 0.2 kcal/mol
- ΔGbind° (dPGM R116A [4]; R116A, calculated with Eq. 6 using [ATP] = 1.0 mM): 3.8 ± 0.1 kcal/mol
- ΔGATP° = ΔGI-N°(1 mM ATP) - ΔGI-N°(No ATP) (dPGM R115A [5]): 4.8 ± 0.4 kcal/mol
- ΔGI-N° (dPGM R115A [5]): 19.4 ± 0.3 kcal/mol
- ΔGU-I° (dPGM R115A [5]): 5 ± 1 kcal/mol
- ΔΔGATP° = ΔGATP°(variant) – ΔGATP°(WT) (dPGM R115A [5]): –1.1 ± 0.2 kcal/mol
- stabilization by pulse proteolysis with purified dPGM ([2]; 1.0 mM ATP): stabilization
- ΔGI-N° (dPGM K99A [6]): 18.5 ± 0.2 kcal/mol
- ΔGU-I° (dPGM K99A [6]): 6 ± 1 kcal/mol
- ΔΔGATP° = ΔGATP°(variant) – ΔGATP°(WT) (dPGM K99A [6]): –1.5 ± 0.2 kcal/mol
- Kd (Wild-type dPGM): 0.32 ± 0.07 µM
- ΔGbind° (Wild-type dPGM; WT, calculated with Eq. 6 using [ATP] = 1.0 mM): 4.7 ± 0.1 kcal/mol
- Kd (dPGM R115A [7]): 7 ± 2 µM
- ΔΔGbind° = ΔGbind°(varient) – ΔGbind°(WT) (dPGM R115A [7]; R115A): –1.8 ± 0.2 kcal/mol
- ΔGbind° (dPGM R115A [7]; R115A, calculated with Eq. 6 using [ATP] = 1.0 mM): 2.9 ± 0.2 kcal/mol
- Kd (dPGM R9A [8]): 5.5 ± 0.5 µM
- ΔΔGbind° = ΔGbind°(varient) – ΔGbind°(WT) (dPGM R9A [8]; R9A): –1.7 ± 0.1 kcal/mol
- ΔGbind° (dPGM R9A [8]; R9A, calculated with Eq. 6 using [ATP] = 1.0 mM): 3.1 ± 0.05 kcal/mol
- ΔGATP° = ΔGI-N°(1 mM ATP) - ΔGI-N°(No ATP) (dPGM R116A [9]): 5.4 ± 0.2 kcal/mol
- ΔGI-N° (dPGM R116A [9]): 18.1 ± 0.2 kcal/mol
- ΔGU-I° (dPGM R116A [9]): 5.8 ± 0.4 kcal/mol
- ΔΔGATP° = ΔGATP°(variant) – ΔGATP°(WT) (dPGM R116A [9]): –0.8 ± 0.1 kcal/mol
- ΔGATP° = ΔGI-N°(1 mM ATP) - ΔGI-N°(No ATP) (dPGM K222A [10]): 9 ± 2 kcal/mol
- ΔGI-N° (dPGM K222A [10]; 1.0 mM ATP): 21 ± 2 kcal/mol
- ΔGU-I° (dPGM K222A [10]; 1.0 mM ATP): 4.4 ± 0.9 kcal/mol
- ΔΔGATP° = ΔGATP°(variant) – ΔGATP°(WT) (dPGM K222A [10]; 1.0 mM ATP): 1.2 ± 1 kcal/mol
- Kd (dPGM K99A [11]): 7 ± 2 µM
- ΔΔGbind° = ΔGbind°(varient) – ΔGbind°(WT) (dPGM K99A [11]; K99A): –1.8 ± 0.2 kcal/mol
- ΔGbind° (dPGM K99A [11]; K99A, calculated with Eq. 6 using [ATP] = 1.0 mM): 2.9 ± 0.2 kcal/mol
- Kd (dPGM K222A [12]): 0.4 ± 0.1 µM
- ΔΔGbind° = ΔGbind°(varient) – ΔGbind°(WT) (dPGM K222A [12]; K222A): –0.1 ± 0.2 kcal/mol
- ΔGbind° (dPGM K222A [12]; K222A, calculated with Eq. 6 using [ATP] = 1.0 mM): 4.6 ± 0.1 kcal/mol
- Kd [1]: 1.5 ± 0.5 µM
- effective stability (ΔGeff) ([1]; 1.0 µM dPGM, 1.0 mM ATP, native conditions): 5.4 kcal/mol
- Cm of the single apparent unfolding transition ([1]; 1.0 mM ATP): about 3.6 M urea
- increase in stability per monomeric unit ([1]; 1.0 mM ATP): 3.5 kcal/mol
- ΔG° of binding of ATP to the native dimer (N2) ([1]; 1.0 mM ATP, 2.5 M urea, per monomer): –3.5 kcal/mol
- increase in ΔGI-N° (ΔGATP°) of wild type ([1]; 1.0 mM ATP, Table 1 fit): 7.0 ± 0.2 kcal/mol and 7.0 kcal/mol
- maximum fraction of intermediate ([1]; 1.0 mM ATP, around 3.7 M urea): 0.12
- effect on ΔGU-I° ([1]; 1.0 mM ATP, called insignificant): 0.6 kcal/mol
- ΔGU-N° ([1]; 1.0 mM ATP, fluorescence): 30.5 ± 0.8 kcal/mol
- ΔGI-N ([1]; 1.0 mM ATP, fluorescence, global fit with no-ATP data, 30 µg/mL dPGM, pH 8.0): 18.5 ± 0.2 kcal/mol
- effective free energy change, I to N2•L2 ([1]; 2.5 M urea, 1.0 mM ATP, 1 µM dPGM): –2.4 kcal/mol per monomer
- ΔGN-I° for reaction from I to N2•L2 ([1]; 2.5 M urea, 1.0 mM ATP, from Table 1 and Eq. 2): –12.5 kcal/mol
- ΔΔGI-N° = ΔGI-N°(ligand) – ΔGI-N°(no ligand) ([1]; ligand 1.0 mM): 7.7 (± 0.2) kcal/mol
- ΔGI-N° [1, 15]: 19.3 (± 0.2) kcal/mol
- ΔGU-I [1, 15]: 5.0 (± 0.3) kcal/mol
